Results reported in US6867320B2, “Substituted phenylalkanoic acid derivatives and use thereof” (Asahi Kasei Pharma Corporation, priority 2002, dated 2005).

Experiments:
[1] = tested on: zymosan-stimulated footpad edema; assay: Mouse zymosan-stimulated footpad edema reaction; assay type: in vivo; conditions: ICR female mice, oral 0.1 to 500 mg/kg, compared with positive control group
Description: 3. Suppressing Effect on Mouse Zymosan-stimulated Footpad Edema Reaction A suppressing effect on footpad edema caused by zymosan as an inflammatory stimulant was studied by the following method. Groups of ICR female mice (6- to 7-week old) each consisting of eight mice were used for the test. A test compound was suspended or dissolved in purified water containing 0.5% methylcellulose and orally administered to the test animals at 0.1 to 500 mg/0.2 ml/kg. To the control group, purified water containing 0.5% methylcellulose was administered in a similar manner, which was not added with a test compound. One hour after the administration of the test compound, 0.02 ml of a suspension of zymosan suspended in physiological saline (Otsuka Pharmaceutical) at 1 mg/ml was subcutaneously administered to right hind leg footpad of each mouse. One and two hours after the administration of the zymosan suspension, volume of the right hind leg footpad was measured by using an apparatus for measuring a volume of mouse hind leg footpad edema (Unicom). A difference of the volume of footpad measured above and the footpad volume before the administration of the test compound measured beforehand was regarded as a volume of the edema. For the volume of the edema at 1 hour or 2 hours after the zymosan administration, a graph was prepared by indicating time in abscissa and the edema volume in ordinate, and an edema volume AUC (area under the curve) was obtained up to 2 hours by calculation using the following equation. Edema volume AUC (1·hour)=1/2×1×A+1×(A+B)/2 • A: Edema volume 1 hour after zymosan administration • B: Edema volume 2 hour after zymosan administration A suppression ratio on edema of test compound was obtained by calculation using the following equation. Edema suppression ratio (%)=[1−B/A]×100 • A: Edema volume AUC of positive control • B: Edema volume AUC of test compound administered group (2) Measurement Results

[2] = tested on: PGE2 production from IL-1β-stimulated MG-63 cells; assay: Suppressing action on PGE2 production from IL-1β-stimulated MG-63 cells; assay type: cell-based; conditions: Homo sapiens, IL-1β 1 ng/ml, 18 hours, read-out: PGE2 production suppression ratio
Excerpt: 1. Suppressing Action on PGE2 Production from IL-1β-Stimulated MG-63 Cells (1) Method for Measurement
An action of suppressing PGE2 production caused by interleukin (IL) 1β as an inflammatory stimulant was studied by the following method. Cells of MG-63, which is a human osteosarcoma cell line (purchased from Dainippon Pharmaceutical), were suspended in EMEM medium (GIBCO) containing 10% fetal bovine serum (BioFluid), and then inoculated to each well of 96-well culture plate at a density of 2×10^4 cells/well and cultured overnight. The medium was changed to EMEM medium containing 0.5% fetal bovine serum, and then a test compound was added with each well. Human interleukin-1β (ENDOGEN) was further added as an inflammatory stimulant at a final concentration of 1 ng/ml. The cells were further cultured for 18 hours. The culture supernatant was collected, and the PGE2 concentration in the culture supernatant was measured by using EIA kit (CAYMAN). By using a well which was not added with the stimulant as a negative control and a well which was added only with the stimulant as a positive control, suppression ratios on PGE2 production were calculated from produced amounts of PGE2 in the well added with the test compound using the following equation. PGE2 production suppression ratio=[1−(C−B)/(A−B)]×100 • A: PGE2 production amount of positive control • B: PGE2 production amount of negative control • C: PGE2 production amount in well added with test compound

O=C(O)CCc1ccc(OCCOc2ccccc2)c(-c2ccc3[nH]ccc3c2)c1 [Compound 222, 3-{3-(1H-indol-5-yl)-4-[2-(phenyloxy)ethyloxy]phenyl}propionic acid]
suppression of footpad edema caused by zymosan [1]: suppressed footpad edema | inhibition at 0.4 µM [2]: ≥ 50%

O=C(O)CCc1ccc(OCCc2ccccc2F)c(-c2ccc3cc(O)ccc3c2)c1 [Compound 006, 3-{4-[2-(2-fluorophenyl)ethyloxy]-3-(6-hydroxynaphthalen-2-yl)phenyl}propionic acid]
suppression of footpad edema caused by zymosan [1]: suppressed footpad edema | inhibition at 0.4 µM [2]: ≥ 50%

3-[4-isopropyloxy-3-(1H-indol-5-yl)phenyl]propionate [Compound 173]
suppression of footpad edema caused by zymosan [1]: suppressed footpad edema

CC(C)(C)c1ccc(COc2ccc(CCC(=O)O)cc2-c2ccc3[nH]ccc3c2)cc1 [Compound 329]
suppression of footpad edema caused by zymosan [1]: suppressed footpad edema

O=C(O)CCc1ccc(OCc2c(Cl)cccc2Cl)c(-c2ccc3[nH]ccc3c2)c1 [Compound 164, 3-[4-(2,6-dichlorophenylmethyloxy)-3-(1H-indol-5-yl)phenyl]propionic acid]
suppression of footpad edema caused by zymosan [1]: suppressed footpad edema | inhibition at 0.4 µM [2]: ≥ 50%

O=C(O)CCc1ccc(OCc2ccccc2F)c(-c2ccc3ccccc3c2)c1 [Compound 031, 3-[4-(2-fluorophenylmethyloxy)-3-(naphthalen-2-yl)phenyl]propionic acid]
suppression of footpad edema caused by zymosan [1]: suppressed footpad edema | inhibition at 0.4 µM [2]: ≥ 50%

CN(C)c1ccc(CCOc2ccc(CCC(=O)O)cc2-c2ccc3[nH]ccc3c2)cc1 [Compound 215, 3-(4-{2-[4-(N,N-dimethylamino)phenyl]Ethyloxy}-3-[1H-indol-5-yl]phenyl)propionic acid]
suppression of footpad edema caused by zymosan [1]: suppressed footpad edema | inhibition at 0.4 µM [2]: ≥ 50%

O=C(O)CCc1ccc(OCCc2ccccc2F)c(-c2ccc3[nH]ccc3c2)c1 [Compound 106, 3-{4-[2-(2-fluorophenyl)ethyloxy]-3-(1H-indol-5-yl)phenyl}propionic acid]
suppression of footpad edema caused by zymosan [1]: suppressed footpad edema | inhibition at 0.4 µM [2]: ≥ 50%

O=C(O)CCc1ccc(OCC2CCCC2)c(-c2ccc3cc(NC(=O)CO)ccc3c2)c1 [Compound 079, 3-(4-cyclopentylmethyloxy-3-{6-[2-(hydroxyacetyl)amino]naphthalen-2-yl}phenyl)propionic acid]
suppression of footpad edema caused by zymosan [1]: suppressed footpad edema

CN(C)C(=O)COc1ccc2cc(-c3cc(CCC(=O)O)ccc3OCC3CCCCC3)ccc2c1 [Compound 074, 3-{4-cyclohexylmethyloxy-3-[6-(N,N-dimethylcarbamoylmethyloxy)-naphthalen-2-yl]phenyl}propionic acid]
inhibition at 0.4 µM [2]: ≥ 50%

O=C(O)CCc1ccc(OCC2CCCC2)c(-c2ccc3[nH]c(=O)sc3c2)c1 [Compound 310, 3-[4-cyclopentylmethyloxy-3-(2-oxo-2,3-dihydrobenzothiazol-6-yl)-phenyl]propionic acid]
inhibition at 0.4 µM [2]: ≥ 50%

O=C(O)CCc1ccc(OCc2ccco2)c(-c2ccc3ccccc3c2)c1 [Compound 058, 3-{4-[(furan-2-yl)methyloxy]-3-(naphthalen-2-yl)phenyl}propionic acid]
inhibition at 0.4 µM [2]: ≥ 50%

Cc1nc2cc(-c3cc(CCC(=O)O)ccc3OCC3CCCC3)ccc2s1 [Compound 283, 3-[4-cyclopentylmethyloxy-3-(2-methylbenzothiazol-5-yl)phenyl]propionic acid]
inhibition at 0.4 µM [2]: ≥ 50%

CS(=O)(=O)Nc1ccc2cc(-c3cc(CCC(=O)O)ccc3OCC3CCCC3)ccc2c1 [Compound 085, 3-[4-cyclopentylmethyloxy-3-(6-methanesulfonylaminonaphthalen-2-yl)phenyl]propionic acid]
inhibition at 0.4 µM [2]: ≥ 50%

COc1ccc(CCOc2ccc(CCC(=O)O)cc2-c2ccc3[nH]ccc3c2)cc1 [Compound 207, 3-{3-(1H-indol-5-yl)-4-[2-(4-methoxyphenyl)ethyloxy]phenyl}propionic acid]
suppression of footpad edema caused by zymosan [1]: suppressed footpad edema | inhibition at 0.4 µM [2]: ≥ 50%

CCCCOc1ccc(CCC(=O)O)cc1-c1ccc2nc(N)sc2c1 [Compound 291, 3-[3-(2-aminobenzothiazol-6-yl)-4-butyloxyphenyl]propionic acid]
suppression of footpad edema caused by zymosan [1]: suppressed footpad edema | inhibition at 0.4 µM [2]: ≥ 50%

O=C(O)CCc1ccc(OCC2CCCC2)c(-c2cccc3[nH]ccc23)c1 [Compound 114, 3-[4-cyclopentylmethyloxy-3-(1H-indol-4-yl)phenyl]propionic acid]
suppression of footpad edema caused by zymosan [1]: suppressed footpad edema | inhibition at 0.4 µM [2]: ≥ 50%

CCCCn1ccc2cc(-c3cc(CCC(=O)O)ccc3OCC3CCCC3)ccc21 [Compound 240, 3-[3-(1-butyl-1H-indol-5-yl)-4-cyclopentylmethyloxyphenyl]propionic acid]
inhibition at 0.4 µM [2]: ≥ 50%

CN(C)c1ccc2cc(-c3cc(CCC(=O)O)ccc3OCC3CCCC3)ccc2c1 [Compound 018, 3-{4-cyclopentylmethyloxy-3-[6-(N,N-dimethylamino)naphthalen-2-yl]phenyl}propionic acid]
inhibition at 0.4 µM [2]: ≥ 50%

3-(3-{6-[(2-aminoacetyl)amino]Naphthalen-2-yl}-4-cyclopentyl-methyloxyphenyl)propionic acid [Compound 078]
suppression of footpad edema caused by zymosan [1]: suppressed footpad edema

Cc1cc(CCC(=O)O)cc(-c2ccc3ccccc3c2)c1OC1CCCC1 [Compound 570, 3-[4-cyclopentyloxy-3-methyl-5-(naphthalen-2-yl)phenyl]propionic acid]
inhibition at 0.4 µM [2]: ≥ 50%

Cn1c(=O)sc2cc(-c3cc(CCC(=O)O)ccc3OCC3CCCC3)ccc21 [Compound 313, 3-[4-cyclopentylmethyloxy-3-(2-oxo-3-methyl-2,3-dihydrobenzothiazol-6-yl)phenyl]propionic acid]
inhibition at 0.4 µM [2]: ≥ 50%

O=C(O)CCc1ccc(OCCOc2ccccc2Cl)c(-c2ccc3[nH]ccc3c2)c1 [Compound 224, 3-{4-[2-(2-chlorophenyloxy)ethyloxy]-3-(1H-indol-5-yl)phenyl}propionic acid]
suppression of footpad edema caused by zymosan [1]: suppressed footpad edema | inhibition at 0.4 µM [2]: ≥ 50%
